# Columns and labels:
# [1] = Measurement of Log P values by HPLC on reversed phase columns (EEC directive 79/831 Annex V.A8); format: physicochemical; details: reversed phase HPLC column, method [a]: LC-UV, acidic range, 0.1% formic acid in water and acetonitrile as eluent
# Method in brief: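 Log P derived from retention on reversed-phase columns (EEC directive 79/831 Annex V.A8), LC-UV, acetonitrile gradient 10% to 95% against water containing 0.1% formic acid, 0.001 M ammonium acetate, or 0.1% phosphoric acid; several values per method separated by "+".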
# [2] = system: Alternaria brassicae; experiment: In vivo preventive test on Alternaria brassicae (leaf spot on radish or cabbage); details: 500 ppm of active ingredient, preventive spray on radish or cabbage, evaluated 3 to 4 days after inoculation, read-out: efficacy
# Method in brief: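 Protective spray on young radish or cabbage: actives in water diluted from DMSO/acetone/Tween 80, with solvent-only controls. Leaves were challenged after 24 h with a spore suspension, and plants were held at 100% RH, 20 °C for 3 to 4 days.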
# [3] = system: Botrytis cinerea; experiment: In vivo preventive test on Botrytis cinerea (grey mould); details: 500 ppm of active ingredient, preventive spray on gherkin or cabbage, evaluated 4 to 5 days after inoculation, read-out: efficacy
# Method in brief: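 Preventive spray on cabbage or gherkin seedlings, with compound formulated in DMSO/acetone/Tween 80 and water-diluted, preceded spore inoculation by 24 hours. Cabbage was held 4 to 5 days at 20° C., 100% relative humidity; gherkin 4 to 5 days at 17° C., 90% relative humidity.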
# [4] = system: Sphaerotheca fuliginea; experiment: In vivo preventive test on Sphaerotheca fuliginea (powdery mildew on cucurbits); details: Podosphaera fuliginea, 192 h; 500 ppm of active ingredient; preventive spray on gherkin; evaluated 8 days after inoculation; read-out: efficacy
# Method in brief: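 This is a preventive spray test on gherkin seedlings, with compound formulated in DMSO/acetone/Tween 80 in water and solvent-only controls. Spore inoculation followed one day after treatment. Incubation lasted 8 days at 20 °C, 70–80% RH.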
# [5] = system: Alternaria alternata; experiment: Alternaria alternata in vitro cell test; format: cell-based; details: 120 h, 20 ppm of active ingredient, liquid culture, 5 days incubation, spectrometric measurement of mycelium growth, read-out: efficacy (inhibition of fungal growth)
# Method in brief: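 Spectrometric readout of mycelial growth after 5-day incubation gauged compound effects on spore germination and growth of A. alternata in liquid medium. Compounds were delivered in DMSO at ≤1% final. Absorbance was compared with untreated controls to give inhibition.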
# [6] = system: Colletotrichum lindemuthianum; experiment: B-8. Colletotrichum lindemuthianum in vitro cell test; format: cell-based; details: 144 h, 20 ppm of active ingredient, 6 days incubation, liquid culture, absorbance, read-out: efficacy (inhibition of fungal growth)
# Method in brief: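 Liquid-culture germination/growth test: compounds in ≤1% final DMSO were added to spore-containing medium. Fungal growth was quantified spectrophotometrically after 6 days of incubation and expressed as inhibition versus untreated controls.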
# [7] = system: Pyrenophora teres; experiment: B-10. Pyrenophora teres in vitro cell test; format: cell-based; details: 144 h, 20 ppm of active ingredient, 6 days incubation, liquid culture, absorbance, read-out: efficacy (inhibition of fungal growth)
# Method in brief: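 Liquid-culture assay on a P. teres spore suspension with compounds added to the medium from DMSO solutions, final DMSO ≤1%. Mycelium growth read spectrometrically after 6 days. Inhibition calculated from absorbance against untreated control wells.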
# [8] = system: Botrytis cinerea; experiment: B-11. Botrytis cinerea in vitro cell test; format: cell-based; details: 144 h, 20 ppm of active ingredient, 6 days incubation, liquid culture, absorbance, read-out: efficacy (inhibition of fungal growth)
# Method in brief: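 B. cinerea spores were grown in liquid culture with compound (DMSO ≤1% final). Mycelium growth was measured spectrometrically after 6 days, with inhibition taken as absorbance relative to untreated control wells.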
chromatographic logP [1],SMILES,pest or weed control at 500 ppm [2],pest or weed control at 500 ppm [3],pest or weed control at 500 ppm [4],inhibition at 20 ppm [5],inhibition at 20 ppm [6],inhibition at 20 ppm [7],inhibition at 20 ppm [8]
3.75,O=C(NCC(F)c1ccc(Cl)cc1Cl)c1c(Oc2cccc(C(F)(F)F)c2)nnc2c1COCC2 (stereo not drawn) [I-126],90 to 100%,90 to 100%,90 to 100%,90 to 100%,90 to 100%,90 to 100%,90 to 100%
3.94,Cc1cc(Br)ccc1C(F)(F)CNC(=O)c1c(Oc2cccc(C(F)(F)F)c2)nnc2c1COCC2 [I-127],90 to 100%,90 to 100%,90 to 100%,90 to 100%,90 to 100%,90 to 100%,90 to 100%
4.05,Cc1ccc(C(F)(F)CNC(=O)c2c(Oc3cccc(Br)c3F)nnc3c2CCCC3)c(C)c1 [I-128],90 to 100%,90 to 100%,90 to 100%,90 to 100%,90 to 100%,90 to 100%,90 to 100%
3.68,Cc1ccc(C(F)(F)CNC(=O)c2c(Oc3cccc(C(F)F)c3)nnc3c2CCCC3)c(C)c1 [I-129],90 to 100%,90 to 100%,90 to 100%,90 to 100%,90 to 100%,90 to 100%,90 to 100%
4,Cc1ccc(C(F)(F)CNC(=O)c2c(Oc3cccc(Cl)c3F)nnc3c2CCCC3)c(C)c1 [I-130],90 to 100%,90 to 100%,90 to 100%,90 to 100%,90 to 100%,90 to 100%,90 to 100%
4.23,Cc1ccc(C(F)(F)CNC(=O)c2c(Oc3cccc(C4CC4)c3F)nnc3c2CCCC3)c(C)c1 [I-131],90 to 100%,90 to 100%,90 to 100%,90 to 100%,90 to 100%,90 to 100%,90 to 100%
4,Cc1ccc(C(F)(F)CNC(=O)c2c(Oc3cccc(C(F)(F)F)c3)nnc3c2CCC3)c(C)c1 [I-132],90 to 100%,90 to 100%,90 to 100%,90 to 100%,90 to 100%,90 to 100%,90 to 100%
3.89,Cc1ccc(C(F)(F)CNC(=O)c2c(Oc3cccc(Cl)c3F)nnc3c2CCC3)c(C)c1 [I-133],90 to 100%,90 to 100%,90 to 100%,90 to 100%,90 to 100%,90 to 100%,90 to 100%
4.17,Cc1ccc(C(F)(F)CNC(=O)c2c(Oc3cccc(C4CC4)c3F)nnc3c2CCC3)c(C)c1 [I-134],90 to 100%,90 to 100%,90 to 100%,90 to 100%,90 to 100%,90 to 100%,90 to 100%
3.78,Cc1ccc(C(F)CNC(=O)c2c(Oc3cccc(Cl)c3F)nnc3c2CCCC3)c(C)c1 (stereo not drawn) [I-136],90 to 100%,90 to 100%,90 to 100%,90 to 100%,90 to 100%,90 to 100%,90 to 100%
4,Cc1ccc(C(F)CNC(=O)c2c(Oc3cccc(C4CC4)c3F)nnc3c2CCCC3)c(C)c1 (stereo not drawn) [I-137],90 to 100%,90 to 100%,90 to 100%,90 to 100%,90 to 100%,90 to 100%,90 to 100%

# More lines, now with the values behind:
SMILES,chromatographic logP [1],pest or weed control at 500 ppm [2],pest or weed control at 500 ppm [3],pest or weed control at 500 ppm [4],inhibition at 20 ppm [5],inhibition at 20 ppm [6],inhibition at 20 ppm [7],inhibition at 20 ppm [8]
O=C(NC[C@H](F)c1ccc(Cl)cc1Cl)c1c(Oc2cccc(C(F)(F)F)c2)cnc2ccoc12 (racemic) [I-067],4.18,90 to 100%,90 to 100%,90 to 100%,90 to 100%,90 to 100%,90 to 100%,90 to 100%
O=C(NC[C@H](F)c1ccc(Cl)cc1Cl)c1c(Oc2cccc(C3CC3)c2F)nnc2ccccc12 (racemic) [I-072],4.57,90 to 100%,90 to 100%,90 to 100%,90 to 100%,90 to 100%,90 to 100%,90 to 100%
Cc1ccc([C@@H](F)CNC(=O)c2c(Oc3cccc(C(F)(F)F)c3)nnc3ccccc23)cc1C (racemic) [I-084],4.19,90 to 100%,90 to 100%,80 to 89%,90 to 100%,90 to 100%,90 to 100%,90 to 100%
Cc1ccc(CCNC(=O)c2c(Oc3cccc(C4CC4)c3F)nnc3ccccc23)c(C)c1 [I-070],4.42,90 to 100%,90 to 100%,90 to 100%,90 to 100%,90 to 100%,90 to 100%,90 to 100%
"Cc1ccc(C(F)(F)CNC(=O)c2c(Oc3cccc(C4CC4)c3F)nnc3ccccc23)c(C)c1 [I-071, 3-(3-cyclopropyl-2-fluoro-phenoxy)-N-[2-(2,4-dimethyl-phenyl)-2,2-difluoro-ethyl]cinnoline-4-carboxamide]",4.54,90 to 100%,90 to 100%,90 to 100%,90 to 100%,90 to 100%,90 to 100%,90 to 100%
O=C(NCC(F)c1ccc(Cl)cc1Cl)c1c(Oc2cccc(C(F)(F)F)c2)nnc2c1CCCC2 (stereo not drawn) [I-118],4.05,90 to 100%,90 to 100%,90 to 100%,90 to 100%,90 to 100%,90 to 100%,90 to 100%
"O=C(NCC(F)c1ccc(Cl)cc1Cl)c1c(Oc2cccc(C3CC3)c2)nnc2c1CCCC2 (stereo not drawn) [I-119, 3-(3-cyclopropylphenoxy)-N-[2-(2,4-dichlorophenyl)-2-fluoro-ethyl]-5,6,7,8-tetrahydrocinnoline-4-carboxamide]",4.11,90 to 100%,90 to 100%,90 to 100%,90 to 100%,90 to 100%,90 to 100%,90 to 100%
Cc1ccc(C(F)(F)CNC(=O)c2c(Oc3cccc(Cl)c3)nnc3c2CCCC3)c(C)c1 [I-121],3.89,90 to 100%,90 to 100%,90 to 100%,90 to 100%,90 to 100%,90 to 100%,90 to 100%
Cc1ccc(C(F)CNC(=O)c2c(Oc3cccc(C(F)(F)F)c3)nnc3c2COCC3)c(C)c1 (stereo not drawn) [I-123],3.61,90 to 100%,90 to 100%,90 to 100%,90 to 100%,90 to 100%,90 to 100%,90 to 100%
Cc1ccc(C(F)(F)CNC(=O)c2c(Oc3cccc(C(F)(F)F)c3)nnc3c2COCC3)c(Cl)c1 [I-124],3.7,90 to 100%,90 to 100%,90 to 100%,90 to 100%,90 to 100%,90 to 100%,90 to 100%
